Assay results as given in ChEMBL document CHEMBL1143303 (Bioorg Med Chem Lett, 2009).
Active and inactive are the calls of the source. The rule behind the calls is not given here.

Columns and labels:
[1] = target: DNA (cytosine-5)-methyltransferase 1 (Homo sapiens) (UniProt P26358); assay: Inhibition of C1226 catalytic site of DNMT1 in presence of S-adenosyl methionine
[2] = target: DNA (cytosine-5)-methyltransferase 1 (Homo sapiens) (UniProt P26358); assay: Inhibition of C1226 catalytic site of DNMT1
[3] = target: Orphan methyltransferase M.SssI (Spiroplasma monobiae) (UniProt P15840); assay: Inhibition of Spiroplasma sp. MQ-1 M.SssI up to 100 uM
Orphan methyltransferase M.SssI (Spiroplasma monobiae), sequence (P15840 whole entry): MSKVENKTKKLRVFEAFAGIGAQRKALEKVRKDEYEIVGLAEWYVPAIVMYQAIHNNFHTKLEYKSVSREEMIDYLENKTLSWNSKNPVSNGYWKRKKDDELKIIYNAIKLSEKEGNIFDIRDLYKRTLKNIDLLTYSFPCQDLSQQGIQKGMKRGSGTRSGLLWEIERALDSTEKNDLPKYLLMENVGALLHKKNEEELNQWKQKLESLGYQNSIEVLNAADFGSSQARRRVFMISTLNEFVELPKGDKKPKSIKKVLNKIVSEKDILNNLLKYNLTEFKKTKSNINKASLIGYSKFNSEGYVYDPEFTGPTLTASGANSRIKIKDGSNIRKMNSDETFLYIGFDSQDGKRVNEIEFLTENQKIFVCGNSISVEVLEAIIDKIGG

MV4-11 [4] = assay: Induction of global DNA hypomethylation in human MV411 cells at 1 uM after 72 hrs by LC-MS/MS analysis relative to control; type: functional, cell-based
MV4-11 [5] = assay: Decrease in global DNA methylation in human MV411 cells at 3 uM after 72 hrs by LC-MS/MS analysis relative to control; type: functional; parameters: scale not given: the % may be the effect or the level left
[6] = target: Orphan methyltransferase M.SssI (Spiroplasma monobiae) (UniProt P15840); assay: (§1) Inhibition of Spiroplasma sp. MQ-1 M.SssI
MV4-11 [7] = assay: Decrease in global DNA methylation in human MV411 cells at 30 uM after 72 hrs by LC-MS/MS analysis relative to control; type: functional; parameters: scale not given: the % may be the effect or the level left
[8] = target: Orphan methyltransferase M.SssI (Spiroplasma monobiae, UniProt P15840); assay: as §1
Orphan methyltransferase M.SssI, sequence (P15840 whole entry): as above

DNA (cytosine-5)-methyltransferase 1 (Homo sapiens), sequence (P26358 whole entry): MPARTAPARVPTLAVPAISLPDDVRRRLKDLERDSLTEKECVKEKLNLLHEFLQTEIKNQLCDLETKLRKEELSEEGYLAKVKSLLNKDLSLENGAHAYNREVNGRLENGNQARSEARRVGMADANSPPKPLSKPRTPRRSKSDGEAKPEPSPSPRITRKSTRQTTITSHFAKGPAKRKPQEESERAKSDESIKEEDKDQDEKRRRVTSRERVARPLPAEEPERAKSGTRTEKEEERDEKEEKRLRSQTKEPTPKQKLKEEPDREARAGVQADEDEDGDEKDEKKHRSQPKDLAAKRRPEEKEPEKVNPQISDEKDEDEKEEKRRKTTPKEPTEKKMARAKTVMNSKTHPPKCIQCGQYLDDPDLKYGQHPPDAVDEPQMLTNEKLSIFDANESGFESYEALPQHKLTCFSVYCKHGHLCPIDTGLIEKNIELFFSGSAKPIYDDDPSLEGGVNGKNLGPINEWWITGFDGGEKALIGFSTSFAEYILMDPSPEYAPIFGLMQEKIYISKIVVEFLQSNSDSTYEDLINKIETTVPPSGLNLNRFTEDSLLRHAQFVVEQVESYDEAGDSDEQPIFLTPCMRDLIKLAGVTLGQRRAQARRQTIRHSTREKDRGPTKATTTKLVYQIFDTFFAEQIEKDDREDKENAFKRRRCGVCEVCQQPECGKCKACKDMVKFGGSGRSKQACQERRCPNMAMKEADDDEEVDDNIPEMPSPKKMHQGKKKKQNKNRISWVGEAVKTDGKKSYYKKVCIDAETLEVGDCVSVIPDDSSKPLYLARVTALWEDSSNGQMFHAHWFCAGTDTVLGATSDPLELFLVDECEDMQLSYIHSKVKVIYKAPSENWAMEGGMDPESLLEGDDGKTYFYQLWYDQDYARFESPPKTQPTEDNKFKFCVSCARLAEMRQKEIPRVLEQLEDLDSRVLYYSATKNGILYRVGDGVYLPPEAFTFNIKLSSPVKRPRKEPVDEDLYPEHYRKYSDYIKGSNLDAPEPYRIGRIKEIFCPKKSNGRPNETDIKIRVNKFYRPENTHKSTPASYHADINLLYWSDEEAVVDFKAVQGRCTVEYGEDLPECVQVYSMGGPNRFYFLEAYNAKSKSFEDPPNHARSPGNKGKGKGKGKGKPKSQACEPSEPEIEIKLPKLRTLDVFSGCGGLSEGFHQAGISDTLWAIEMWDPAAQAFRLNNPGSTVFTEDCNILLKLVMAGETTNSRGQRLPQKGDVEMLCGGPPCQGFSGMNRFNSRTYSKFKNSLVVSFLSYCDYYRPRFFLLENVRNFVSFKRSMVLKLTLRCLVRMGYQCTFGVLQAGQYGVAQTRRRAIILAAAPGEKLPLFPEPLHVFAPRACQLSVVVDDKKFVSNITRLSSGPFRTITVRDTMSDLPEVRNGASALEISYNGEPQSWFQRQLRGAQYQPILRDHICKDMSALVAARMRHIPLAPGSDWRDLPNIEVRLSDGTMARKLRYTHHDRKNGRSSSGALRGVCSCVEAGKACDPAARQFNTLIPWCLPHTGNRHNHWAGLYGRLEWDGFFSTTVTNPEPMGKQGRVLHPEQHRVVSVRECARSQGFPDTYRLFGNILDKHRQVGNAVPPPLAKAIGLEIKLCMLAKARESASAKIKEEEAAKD

Activity [1] | Activity [2] | Activity [3] | Activity [6] | IC50 [8] | Compound | Activity (MV4-11 [4]) | Activity (MV4-11 [5]) | Activity (MV4-11 [7])
Active | Active | inactive | – | – | COc1cc(CCC(=O)CC(O)CCc2ccc(O)c(OC)c2)ccc1O (centres undefined) | – | – | –
– | Active | – | Dose-dependent effect | – | COc1cc(/C=C/C(=O)CC(=O)/C=C/c2ccc(O)c(OC)c2)ccc1O [CURCUMIN] | inactive | 15% | 15%
Active | Active | – | – | – | COc1cc(CCC(=O)CC(=O)CCc2ccc(O)c(OC)c2)ccc1O | – | – | –
– | Active | – | – | 30 nM | COc1cc(/C=C/C(O)=C/C(=O)/C=C/c2ccc(O)cc2)ccc1O [DEMETHOXYCURCUMIN] | – | – | –
– | Active | – | – | 30 nM | O=C(/C=C/c1ccc(O)cc1)CC(=O)/C=C/c1ccc(O)cc1 [BISDEMETHOXYCURCUMIN] | – | – | –
